Experimental data: PubChem BioAssay (NCI)
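Method: 48-hour compound exposure of cells in 96-well plates, five concentrations, linear interpolation of endpoints. GI50 = concentration required for 50% inhibition of growth. TGI marks complete inhibition of growth.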

Assays:
Experiment in all cases: NCI anticancer screen, dose series, 48 h
786-0 renal = tested on: 786-0 renal
A549 NSCLC = tested on: A549 NSCLC
ACHN renal = tested on: ACHN renal
BT-549 breast = tested on: BT-549 breast
CAKI-1 renal = tested on: CAKI-1 renal
CCRF-CEM leukemia = tested on: CCRF-CEM leukemia
COLO 205 colon = tested on: COLO 205 colon
DU-145 prostate = tested on: DU-145 prostate
EKVX NSCLC = tested on: EKVX NSCLC
HCT-116 colon = tested on: HCT-116 colon
HCT-15 colon = tested on: HCT-15 colon
HL-60(TB) leukemia = tested on: HL-60(TB) leukemia
HOP-62 NSCLC = tested on: HOP-62 NSCLC
HOP-92 NSCLC = tested on: HOP-92 NSCLC
HS 578T breast = tested on: HS 578T breast
HT29 colon = tested on: HT29 colon
IGROV1 ovarian = tested on: IGROV1 ovarian
K-562 leukemia = tested on: K-562 leukemia
KM12 colon = tested on: KM12 colon
LOX IMVI melanoma = tested on: LOX IMVI melanoma
M14 melanoma = tested on: M14 melanoma
MALME-3M melanoma = tested on: MALME-3M melanoma
MCF7 breast = tested on: MCF7 breast
MDA-MB-231 breast = tested on: MDA-MB-231 breast
MDA-MB-435 = tested on: MDA-MB-435
MOLT-4 leukemia = tested on: MOLT-4 leukemia
NCI-H226 lung = tested on: NCI-H226 lung
NCI-H23 lung = tested on: NCI-H23 lung
NCI-H460 lung = tested on: NCI-H460 lung
NCI-H522 lung = tested on: NCI-H522 lung
NCI/ADR-RES ovarian = tested on: NCI/ADR-RES ovarian
OVCAR-4 ovarian = tested on: OVCAR-4 ovarian
OVCAR-5 ovarian = tested on: OVCAR-5 ovarian
OVCAR-8 ovarian = tested on: OVCAR-8 ovarian
PC-3 prostate = tested on: PC-3 prostate
RPMI-8226 leukemia = tested on: RPMI-8226 leukemia
RXF 393 renal = tested on: RXF 393 renal
SF-268 CNS = tested on: SF-268 CNS
SF-295 CNS = tested on: SF-295 CNS
SF-539 CNS = tested on: SF-539 CNS
SK-MEL-2 melanoma = tested on: SK-MEL-2 melanoma
SK-MEL-28 melanoma = tested on: SK-MEL-28 melanoma
SK-MEL-5 melanoma = tested on: SK-MEL-5 melanoma
SK-OV-3 ovarian = tested on: SK-OV-3 ovarian
SN12C renal = tested on: SN12C renal
SNB-19 CNS = tested on: SNB-19 CNS
SNB-75 CNS = tested on: SNB-75 CNS
SR leukemia = tested on: SR leukemia
SW-620 colon = tested on: SW-620 colon
T-47D breast = tested on: T-47D breast
TK-10 renal = tested on: TK-10 renal
U251 CNS = tested on: U251 CNS
UACC-257 melanoma = tested on: UACC-257 melanoma
UACC-62 melanoma = tested on: UACC-62 melanoma
UO-31 renal = tested on: UO-31 renal
A498 renal = tested on: A498 renal
HCC-2998 colon = tested on: HCC-2998 colon
OVCAR-3 ovarian = tested on: OVCAR-3 ovarian

## Nc1cc(Cl)ccc1SSc1ccc(Cl)cc1N
786-0 renal
  TGI: 25.9 µM
A549 NSCLC
  TGI: > 100 µM
ACHN renal
  TGI: 21.3 µM
BT-549 breast
  TGI: 35.1 µM
CAKI-1 renal
  TGI: 35.7 µM
CCRF-CEM leukemia
  TGI: > 100 µM
COLO 205 colon
  TGI: 35.9 µM
DU-145 prostate
  TGI: 29.2 µM
EKVX NSCLC
  TGI: 24.5 µM
HCT-116 colon
  TGI: 21.7 µM
HCT-15 colon
  TGI: 8.8 µM
HL-60(TB) leukemia
  TGI: > 100 µM
HOP-62 NSCLC
  TGI: 29.4 µM
HOP-92 NSCLC
  TGI: > 100 µM
HS 578T breast
  TGI: 46.7 µM
HT29 colon
  TGI: 42.3 µM
IGROV1 ovarian
  TGI: 25.5 µM
K-562 leukemia
  TGI: > 100 µM
KM12 colon
  TGI: 24.6 µM
LOX IMVI melanoma
  TGI: 14.2 µM
M14 melanoma
  TGI: 21.7 µM
MALME-3M melanoma
  TGI: 36.3 µM
MCF7 breast
  TGI: 15.7 µM
MDA-MB-231 breast
  TGI: 20.3 µM
MDA-MB-435
  TGI: 25.9 µM
MOLT-4 leukemia
  TGI: > 100 µM
NCI-H226 lung
  TGI: 15.4 µM
NCI-H23 lung
  TGI: 20.4 µM
NCI-H460 lung
  TGI: 31.6 µM
NCI-H522 lung
  TGI: 23.8 µM
NCI/ADR-RES ovarian
  TGI: 30.4 µM
OVCAR-4 ovarian
  TGI: 31.1 µM
OVCAR-5 ovarian
  TGI: 30.3 µM
OVCAR-8 ovarian
  TGI: > 100 µM
PC-3 prostate
  TGI: 48.4 µM
RPMI-8226 leukemia
  TGI: > 100 µM
RXF 393 renal
  TGI: > 100 µM
SF-268 CNS
  TGI: 83.5 µM
SF-295 CNS
  TGI: 25.6 µM
SF-539 CNS
  TGI: 31.5 µM
SK-MEL-2 melanoma
  TGI: 35 µM
SK-MEL-28 melanoma
  TGI: 40.6 µM
SK-MEL-5 melanoma
  TGI: 27 µM
SK-OV-3 ovarian
  TGI: > 100 µM
SN12C renal
  TGI: 28.7 µM
SNB-19 CNS
  TGI: > 100 µM
SNB-75 CNS
  TGI: 37.6 µM
SR leukemia
  TGI: > 100 µM
SW-620 colon
  TGI: 15 µM
T-47D breast
  TGI: 45.4 µM
TK-10 renal
  TGI: 40.8 µM
U251 CNS
  TGI: 15.4 µM
UACC-257 melanoma
  TGI: 41.5 µM
UACC-62 melanoma
  TGI: 12.7 µM
UO-31 renal
  TGI: 22.1 µM

## C/C=C(\C)C(=O)O[C@H]1C=CC(=O)O[C@H]1COC(=O)[C@H](C)O
786-0 renal
  GI50: 6.59 µM
  TGI: 20.9 µM
A498 renal
  GI50: 15.7 µM
  TGI: 31.4 µM
A549 NSCLC
  GI50: 15.5 µM
  TGI: 35.3 µM
ACHN renal
  GI50: 4.38 µM
  TGI: 16.6 µM
BT-549 breast
  GI50: 9.56 µM
  TGI: 21.7 µM
CAKI-1 renal
  GI50: 5.46 µM
  TGI: 14.9 µM
COLO 205 colon
  GI50: 3.07 µM
  TGI: 15.5 µM
DU-145 prostate
  GI50: 9.17 µM
  TGI: 22.4 µM
EKVX NSCLC
  GI50: 14.5 µM
  TGI: 28.9 µM
HCC-2998 colon
  GI50: 14.9 µM
  TGI: 30 µM
HCT-116 colon
  GI50: 2720 nM
  TGI: 10.9 µM
HCT-15 colon
  GI50: 3.74 µM
  TGI: 16.2 µM
HL-60(TB) leukemia
  GI50: 2340 nM
  TGI: 6.9 µM
HOP-62 NSCLC
  GI50: 19.8 µM
  TGI: 35.4 µM
HOP-92 NSCLC
  GI50: 7.6 µM
  TGI: 21.1 µM
HS 578T breast
  GI50: 7.37 µM
  TGI: 26 µM
HT29 colon
  GI50: 3.76 µM
  TGI: 17.4 µM
IGROV1 ovarian
  GI50: 10.2 µM
  TGI: 33.7 µM
K-562 leukemia
  GI50: 3.69 µM
  TGI: 17.6 µM
KM12 colon
  GI50: 8.81 µM
  TGI: 27 µM
LOX IMVI melanoma
  GI50: 3.59 µM
  TGI: 14.8 µM
M14 melanoma
  GI50: 7.51 µM
  TGI: 23.1 µM
MALME-3M melanoma
  GI50: 5.5 µM
  TGI: 15.8 µM
MCF7 breast
  GI50: 3.4 µM
  TGI: 14.1 µM
MDA-MB-231 breast
  GI50: 12.1 µM
  TGI: 28.3 µM
MDA-MB-435
  GI50: 5.74 µM
  TGI: 22.4 µM
MOLT-4 leukemia
  GI50: 1950 nM
  TGI: 5.22 µM
NCI-H226 lung
  GI50: 12.4 µM
  TGI: 31.5 µM
NCI-H23 lung
  GI50: 15.3 µM
  TGI: 36.9 µM
NCI-H460 lung
  GI50: 10.3 µM
  TGI: 29.1 µM
NCI-H522 lung
  GI50: 7.1 µM
  TGI: 23.7 µM
NCI/ADR-RES ovarian
  GI50: 12.1 µM
  TGI: 32.6 µM
OVCAR-3 ovarian
  GI50: 3.44 µM
  TGI: 14 µM
OVCAR-4 ovarian
  GI50: 5.97 µM
  TGI: 21.5 µM
OVCAR-5 ovarian
  GI50: 18.8 µM
  TGI: 39 µM
OVCAR-8 ovarian
  GI50: 12.2 µM
  TGI: 28.3 µM
PC-3 prostate
  GI50: 11 µM
  TGI: 28.9 µM
RPMI-8226 leukemia
  GI50: 3.2 µM
  TGI: 14.5 µM
RXF 393 renal
  TGI: 7.41 µM
SF-268 CNS
  GI50: 4.32 µM
  TGI: 17.6 µM
SF-295 CNS
  GI50: 13.1 µM
  TGI: 28.9 µM
SF-539 CNS
  GI50: 9.73 µM
  TGI: 23.3 µM
SK-MEL-2 melanoma
  GI50: 15.3 µM
  TGI: 41.4 µM
SK-MEL-28 melanoma
  GI50: 3.53 µM
  TGI: 11.5 µM
SK-MEL-5 melanoma
  GI50: 4.62 µM
  TGI: 16.7 µM
SK-OV-3 ovarian
  GI50: 17.6 µM
  TGI: 46.4 µM
SN12C renal
  GI50: 12.9 µM
  TGI: 28.3 µM
SNB-19 CNS
  GI50: 12.1 µM
  TGI: 27 µM
SNB-75 CNS
  GI50: 6.95 µM
  TGI: 20.9 µM
SR leukemia
  GI50: 2200 nM
  TGI: 13.4 µM
SW-620 colon
  GI50: 4.28 µM
  TGI: 15.1 µM
T-47D breast
  GI50: 3.81 µM
  TGI: 19.2 µM
TK-10 renal
  GI50: 10.8 µM
  TGI: 24.3 µM
U251 CNS
  GI50: 7.35 µM
  TGI: 21 µM
UACC-257 melanoma
  GI50: 14.7 µM
  TGI: 30.8 µM
UACC-62 melanoma
  GI50: 7.71 µM
  TGI: 21 µM
UO-31 renal
  GI50: 9.79 µM
  TGI: 25.5 µM
